Data from PMC12860872, “Preclinical evaluation of DOTAGA.Glu.(FAPI)2 and DO3A.Glu.(FAPI)2 as theranostics with human dosimetry extrapolation to lutetium-177 and terbium-161 analogs” (European Journal of Nuclear Medicine and Molecular Imaging, 2025).

How the values were obtained:
[1] = test system: PC3-mice; test: Dosimetry in mice (nTACs, effective half-lives, TIAC/g); format: in vivo, mouse; conditions: for Effective half life: Tumor: nTACs
Method: (n = 3). The %I.A./g of tissue was calculated for liver, lungs, stomach, spleen, pancreas, kidneys, intestines, bone, muscle, salivary glands, heart wall, blood, tumor. To estimate the absolute activity in each source organ, the individual %I.A./g values were multiplied by the corresponding organ mass derived from the standard 25 g MOBY mouse phantom, yielding in the normalized source organ activities (nA) per time point and animal.
Following Cicone et al., the nA values for source organs were corrected to account for the fraction of administered activity sequestered by the tumor, as described in more detail in the dosimetry section of the supplemental data. According to the MIRD formalism, time-integrated activity coefficients (TIACs) were derived by integrating the normalized time-activity curves (nTACs), which were fitted using the bi-exponential functions. TIACs were calculated by fitting the nTACs with the bi-exponential functions and performing time integration in MATLAB. Additionally, mass-normalized TIACs (TIAC/g) were derived using organ masses from the standard 25 g MOBY mouse phantom (Supplemental data).
Biodistribution kinetics for [177Lu]Lu-DOTAGA.Glu.(FAPI)2 and [177Lu]Lu-DO3A.Glu.(FAPI)2 were assessed by ex vivo quantification of the accumulated radioactivity in source organs using a calibrated gamma counter at 4, 24, 48, 72, and 96 hours p.i. (n=3). The percentage of injected activity per gram of tissue (%I.A./g) was calculated, as described above, for a comprehensive panel of tissues, including liver, lungs, stomach, spleen, pancreas, kidneys, intestines, bone, muscle, salivary glands, heart wall, blood, and tumor. To estimate the absolute activity in each source organ, the individual %I.A./g values was multiplied by the corresponding organ mass derived from the standard 25 g MOBY mouse phantom, which provides high-resolution anatomical reference data for the murine models (28). […] The actual activity measurements were referred to the gamma counter measurement time (i.e. no physical decay correction to the administration time was applied). For each organ and time point, the mean nA was subsequently calculated across the three animals.
As outlined by Cicone et al., (1) the nA values for source organs were corrected to account for the fraction of administered activity sequestered by the tumor by redistributing the tumor nA (nAtumor) to organs according to the formula: […]
Where nAWB is the nA measured in the whole body. This adjustment was implemented to facilitate the extrapolation of absorbed dose data from mice to humans, considering that the tumor "sink effect" - prominent in murine models - is generally negligible in human subjects. In radiopharmaceutical dosimetry using tumor-bearing mice, the “tumor sink” effect refers to the phenomenon where large or highly avid tumors absorb a significant portion of the injected radiotracer, reducing its availability to normal organs. This can lead to artificially low uptake measurements in healthy tissues, which may not reflect what would occur in humans with smaller tumors or lower tumor burden. To correct for this, dosimetry calculations often include a "tumor sink correction" that adjusts normal organ uptake values to account for the radiotracer sequestered by the tumor, ensuring more accurate and clinically relevant dose estimates.
According to the MIRD formalism, for each source organ, time-integrated activity coefficients (TIACs) were derived by integrating the normalized time-activity curves (nTACs), which were fitted using the bi-exponential functions. The integration of the fitted nTACs was extended to infinity for organs in which the effective half-life of the slower bi-exponential component (tslow) was shorter than the physical half-life of lutetium-177 (tslow < tphys). […]

[2] = cited from earlier work
[3] = PC3-mice, nTACs corrected for tumor sink

| TIAC/g Bones ([1]; Mouse) [h/g] | TIAC/g Heart contents ([1]; Mouse) [h/g] | TIAC/g Kidneys ([1]; Mouse) [h/g] | TIAC/g Liver ([1]; Mouse) [h/g] | TIAC/g Pancreas ([1]; Mouse) [h/g] | TIAC/g Rest of the body ([1]; Mouse) [h/g] | TIAC/g Salivary glands ([1]; Mouse) [h/g] | TIAC/g Tumor ([1]; Mouse) [h/g] | Effective half life: Tumor ([1]; PC3-mice) [h] | Effective half life: Bones [1, 3] [h] | Effective half life: Heart content [1, 3] [h] | Effective half life: Kidney [1, 3] [h] | Effective half life: Lung [1, 3] [h] | Effective half life: Pancreas [1, 3] [h] | Effective half life: Salivary glands [1, 3] [h] | Effective half life: Small Intestine [1, 3] [h] | Structure (SMILES) | other results |
| --- | --- | --- | --- | --- | --- | --- | --- | --- | --- | --- | --- | --- | --- | --- | --- | --- | --- |
| 6.65 ± 0.39 | 0.11 ± 0.005 | 0.39 ± 0.02 | 9.65 ± 0.82 | 0.29 ± 0.01 | 10.75 ± 0.68 | 0.36 ± 0.01 | 1.19 ± 0.16 | 39.1 ± 1.1 | 30.9 ± 0.5 | 12.5 ± 0.1 | 50.1 ± 3.1 | 19.9 ± 0.6 | 40 ± 14.2 | 52.1 ± 14.9 | 25.4 ± 0.9 | N#C[C@@H]1CC(F)(F)CN1C(=O)CNC(=O)c1ccnc2ccc(OCCCCNC(=O)CC[C@H](NC(=O)CCC(C(=O)O)N3CCN(CC(=O)[O-])CCN(CC(=O)[O-])CCN(CC(=O)[O-])CC3)C(=O)NCCCCOc3ccc4nccc(C(=O)NCC(=O)N5CC(F)(F)C[C@H]5C#N)c4c3)cc12.[177Lu+3] (some centres unmarked) [[^177Lu]Lu-DOTAGA.Glu.(FAPI)2] | Liver TIAC/g, times higher than for [177Lu]Lu-DO3A.Glu.(FAPI)2 ([1]; Mouse): 2.7 times; absorbed dose left colon ([2]; human dosimetry, mean): 0.31 ± 0.12 Gy/GBq; absorbed dose right colon ([2]; human dosimetry, mean): 0.22 ± 0.09 Gy/GBq; biological half-life in bone metastases ([2]; human studies): 19.5 ± 7.3 h; biological half-life in soft tissue metastases ([2]; human studies): 22.1 ± 6.7 h |
| 3.82 ± 0.12 | 0.12 ± 0.003 | 0.20 ± 0.01 | 3.47 ± 0.14 | 0.20 ± 0.01 | 10.77 ± 0.32 | 0.25 ± 0.02 | 1.61 ± 0.2 | 51 ± 12.6 | 23.3 ± 1.4 | 12.8 ± 0.4 | 22.3 ± 7.1 | 18.3 ± 4.4 | 14.1 ± 3.2 | 11.8 ± 5.9 | 16.2 ± 4.5 | N#C[C@@H]1CC(F)(F)CN1C(=O)CNC(=O)c1ccnc2ccc(OCCCCNC(=O)CC[C@H](NC(=O)CN3CCN(CC(=O)[O-])CCN(CC(=O)[O-])CCN(CC(=O)[O-])CC3)C(=O)NCCCCOc3ccc4nccc(C(=O)NCC(=O)N5CC(F)(F)C[C@H]5C#N)c4c3)cc12.[177Lu+3] [[^177Lu]Lu-DO3A.Glu.(FAPI)2] | Effective half life: Liver [1, 3]: 70.4 ± 2.9 h |
